# From US6555733B2, “Genes coding for amino acid deacetylases with specificity for N-acetyl-L-phosphinothricin, their isolation and use” (priority 1996, dated 2003)
# B1: N-acetyl-PPT deacetylase: deacetylase from Stenotrophomonas sp., 454 amino acids (SEQ ID NO:2), purified from E. coli as GST fusion cleavage product (protein)
# chain: MIRKTVLLTALSCALASATATAAEGQRPEVEAAAARLQRQVVEWRRDFHQHPELSNREVRTAAKVAERLRAMGLQPQTGVAVHGVVAIIKGALPGPKIALRADMDALPVTEQTGLPFASTATAEYRGEKVGVMHACGHDAHTATLLGVADALVAMRDTLPGEVMLIFQPAEEGAPPPEQGGAELMLKEGLFKEFKPEAVFGLHVFSSVQAGQIAVRGGPLMAASDRFAITVNGRQTHGSAPWNGIDPIVAASDLIGTAQTIVSRRANLSKQPAVLTFGAIKGGIRYNIIPDSVEMVGTIRTFDPDMRKQIFADLRNVAEHTAAAHGATATTDIYEKDGNPATVNDPALTARMLPSLQAVVGKDNVYEPPLQMGSEDFSLYAQQVPAMFFFVGSTGAGIDPATAPSNHSPKFLLDEKALDVGLRALLQVSLDYLHGGKAG
# modifications: Stenotrophomonas sp
# Columns and labels:
# [1] = system: leaves of tobacco plants (35S promoter-deac1 transformants, nontransgenic controls); experiment: Drop experiment on leaves of pPCVKDEAC1 tobacco plants and nontransgenic control plants; assay type: in vivo, Nicotiana tabacum; design: key to Drop experiment, leaf symptoms: +++: severe necrosis; ++: marked damage; +: slight lightening; −: no symptoms
# Description: The deac1 structural gene was recloned as a 1.4 kb BamHI/SalI PCT fragment into the binary vector pPCV801 (Koncz and Schell, 1986, Mol. Gen. Genet. 204: 383-396) under control of the 35S promoter. The resulting plasmid pPCVKDEAC1 (FIG. 2) with the expression vector 35S promoter-deac1-structural gene-35S terminator was transformed in Agrobacterium tumefaciens (strain ATHV) using standard methods. Pieces of tobacco leaf (Nicotiana tabacum) were transformed with the recombinant Agrobacteria according to the method of Horsch et al., 1985, Science 227: 1229-1231 and selected on kanamycin medium, 18 independent tobacco transformants were regenerated and tested for expression of the deacetylase in the leaves. In the case of activity of the protein in the transgenic plants, a sensitivity of the leaves to N-acetyl-PPT was to be expected, because the substance in the plant is then converted into the herbicidal active compound phosphinothricin on account of the enzymatic activity of the deacetylase.
# In a drop experiment, the leaves of the transgenic plants and of a number of nontransgenic control plants were treated with 5 μl each of the following concentrations of N-acetyl-D,L-PPT: 4 mg/ml(=15 mM), 1 mg/ml(=3.75 mM), 0.4 mg/ml(=1.5 mM), 0.1 mg/ml(=0.38 mM). The treatment sites were examined for lightening or necrosis formation after 1-2 weeks. Simultaneously, the N-acetyl-PPT-specific deacetylase activity of the transformants, and also of the control plants, was measured in crude extracts. To do this, 100 mg each of leaf material were homogenized in 200 μl of PBS buffer, the cell debris was centrifuged off and the protein-containing supernatants were dialyzed overnight at 4° C. against the same buffer. 10 μl each of these samples were incubated with 0.1 mM [^14C]-N-acetyl-L-PPT overnight at 37° C. The batches were then analyzed in the HPLC, as described above, for formation of [^14C]-L-PPT.
# [2] = system: flower buds of tobacco plants (tap1 promoter-deac1 transformants, NT Sam NN controls); experiment: Flower bud treatment, induced male sterility in pPCVTDEAC1 tobacco plants; assay type: in vivo, Nicotiana tabacum
# Description: Using standard methods, the tapetum-specific promoter of the tap1 gene from snapdragon (Antirrhinum majus) was fused in the vector pUC18 as a 2.2 kb EcoRI/BamHI fragment with the deac1 structural gene (1.4 kb BamHI/SalI-PCR fragment) and the 35S terminator. The expression cassette tap1 promoter-deac structural gene-35S terminator thus resulting was cloned into the binary vector pPCV801 as a 3.8 kb EcoRI fragment instead of the 35S promoter/terminator region (plasmid pPCVTDEAC1, FIG. 3). The transformation of tobacco was carried out as described in Example 4.
# In the case of tapetum-specific expression of the deacetylase, it should be possible by treatment of the flower buds with N-acetyl-PPT to induce male-sterile flowers. The conversion of the PPT derivative into the herbicidal active compound phosphinothricin leads to selective damage to the tapetum tissue, by means of which the development of functional pollen is prevented.
# In each case only one side of the inflorescences (the total area of the developing flower buds) was treated with N-acetyl-PPT, the other side of the influorescences remained untreated in order to ensure that the phenomena to be observed are not to be attributed to deformities of the respective plants. The treatment was carried out at a time at which the individual buds were not larger than 5 mm (active phase for tapetum promoter). The tobacco transformants and also a number of NT Sam NN control plants were treated 3× with 0.2% N-acetyl-D,L-PPT(=7.5 mM)/0.1% Genapol (wetting agent) within one week. After the blooming of the buds (about 9-11 days after conclusion of the treatment), the plants were investigated for the occurrence of male-sterile flowers.
# [3] = system: N-acetyl-PPT deacetylase (Deac1 protein); experiment: Radioactive test of purified N-acetyl-PPT deacetylase (Deac1) with [14C]-N-acetyl-L-PPT, HPLC; assay type: biochemical, Stenotrophomonas sp.; settings: for Km: substrate [14C]-N-acetyl-L-PPT 0.01-1 mM, pH=8.0, 1 mM CoCl2, 3-fold determinations; for Spec. activity: substrate [14C]-N-acetyl-L-PPT
# [4] = system: N-acetyl-PPT deacetylase (Deac1 protein); experiment: Nonradioactive test, substrate specificity of purified deacetylase (amino acid analyzer); assay type: biochemical, Stenotrophomonas sp.; settings: 25 mM substrate; for Rel. activity: 60 min, 28 °C, 5 μg enzyme, hippuric acid set equal to 100%
# Protocol: (2) Nonradioactive test: To investigate the substrate specificity, 5 μg each of purified enzyme were incubated for 60 min. at 28° C. in 20 μl batches in PBS buffer with, in each case, 25 mM of a certain N-acetyl- or N-acylamino acid. The samples were then measured in an amino acid analyzer (Biotronic LC 5001) for formation of the free amino acids. The specific activities were determined in [nmol of amino acid/min/mg of protein]. For the N-acetyl-PPT deacetylase, a pH optimum of pH=8 (see Tab. 1) and a temperature optimum of 37° C. (see Tab. 2) were determined. […] By addition of 1 mM CoCl2, the enzyme activity could be increased by about 20%.
molecule,measurement,setting,value
"CC(=O)NC(CCP(C)(=O)O)C(=O)O (racemic) [N-acetyl-D,L-PPT, N-acetylphosphinothricin]","Drop experiment, leaf symptoms","[1]; Control plant, 0.1 mg/ml",−
same,"Drop experiment, leaf symptoms","[1]; Control plant, 0.4 mg/ml",−
same,"Drop experiment, leaf symptoms","[1]; Control plant, 1 mg/ml",−
same,"Drop experiment, leaf symptoms","[1]; Control plant, 4 mg/ml, 5 μl, after 1-2 weeks",−
same,concentration to which leaves still react sensitively,"[1]; constitutive expression of the deac gene, greenhouse plants (=0.2 mg/ml of L-enantiomer)",0.4 mg/mL
same,"Drop experiment, leaf symptoms","[1]; plant pPCVK9, 0.1 mg/ml",−
same,"Drop experiment, leaf symptoms","[1]; plant pPCVK9, 0.4 mg/ml",−
same,"Drop experiment, leaf symptoms","[1]; plant pPCVK9, 1 mg/ml",+
same,"Drop experiment, leaf symptoms","[1]; plant pPCVK9, 4 mg/ml",+++
same,"Drop experiment, leaf symptoms","[1]; plant pPCVK14, 0.1 mg/ml",−
same,"Drop experiment, leaf symptoms","[1]; plant pPCVK14, 0.4 mg/ml",−
same,"Drop experiment, leaf symptoms","[1]; plant pPCVK14, 1 mg/ml",+
same,"Drop experiment, leaf symptoms","[1]; plant pPCVK14, 4 mg/ml",+
same,"Drop experiment, leaf symptoms","[1]; plant pPCVK15, 0.1 mg/ml",−
same,"Drop experiment, leaf symptoms","[1]; plant pPCVK15, 0.4 mg/ml",+
same,"Drop experiment, leaf symptoms","[1]; plant pPCVK15, 1 mg/ml",+
same,"Drop experiment, leaf symptoms","[1]; plant pPCVK15, 4 mg/ml",++
same,"Drop experiment, leaf symptoms","[1]; plant pPCVK16, 0.1 mg/ml",−
same,"Drop experiment, leaf symptoms","[1]; plant pPCVK16, 0.4 mg/ml",−
same,"Drop experiment, leaf symptoms","[1]; plant pPCVK16, 1 mg/ml",+
same,"Drop experiment, leaf symptoms","[1]; plant pPCVK16, 4 mg/ml",+
same,"Drop experiment, leaf symptoms","[1]; plant pPCVK17, 0.1 mg/ml",−
same,"Drop experiment, leaf symptoms","[1]; plant pPCVK17, 0.4 mg/ml",−
same,"Drop experiment, leaf symptoms","[1]; plant pPCVK17, 1 mg/ml",+
same,"Drop experiment, leaf symptoms","[1]; plant pPCVK17, 4 mg/ml",+
same,"Number of sterile or pollen-reduced flowers, treated","[2]; Control plant, 3x 0.2% N-acetyl-D,L-PPT/0.1% Genapol within one week",0
same,"Number of sterile or pollen-reduced flowers, treated",[2]; plant pPCT16,10
same,"Number of sterile or pollen-reduced flowers, treated",[2]; plant pPCVT14,18
same,"Number of sterile or pollen-reduced flowers, treated",[2]; plant pPCVT15,0
same,induction of male-sterile flowers (in words),"[2]; tapetum-specific expression, buds treated with 2 mg/ml (=1 mg/ml of L-enantiomer), greenhouse plants",induction of male-sterile flowers was achieved
[Cl-].[Cl-].[Co+2] [CoCl2],increase of enzyme activity,[3],about 20%
"O=C(O)CNC(=O)c1ccccc1 [Hippuric acid, N-benzoylglycine]",conversion by the deacetylase (in words),[4],highest conversions
same,Rel. activity,[4],100%
"CC(=O)N[C@@H](CCC(=O)O)C(=O)O [N-Ac-glutamic acid, N-acetyl-L-glutamate]",conversion by the deacetylase (in words),[4],highest conversions
same,Rel. activity,[4],100%
CC(=O)N[C@@H](CCC(N)=O)C(=O)O [N-Ac-glutamine],Rel. activity,[4],30%
CC(=O)NCC(=O)O [N-Ac-glycine],Rel. activity,[4],59%
CC(=O)N[C@@H](Cc1cnc[nH]1)C(=O)O [N-Ac-histidine],Rel. activity,[4],43%
CC(=O)N[C@@H](CC(C)C)C(=O)O [N-Ac-leucine],Rel. activity,[4],33%
CSCCC(NC(C)=O)C(=O)O (stereo not drawn) [N-Ac-methionine],Rel. activity,[4],0%
CC(=O)N[C@@H](CCCN)C(=O)O [N-Ac-ornithine],Rel. activity,[4],37%
CC(=O)NC(Cc1ccccc1)C(=O)O (stereo not drawn) [N-Ac-phenylalanine],Rel. activity,[4],24%
CC(=O)N1CCCC1C(=O)O (stereo not drawn) [N-Ac-proline],Rel. activity,[4],0%
CC(=O)NC(CO)C(=O)O (stereo not drawn) [N-Ac-serine],Rel. activity,[4],4%
CC(=O)NC(Cc1c[nH]c2ccccc12)C(=O)O (stereo not drawn) [N-Ac-tryptophan],Rel. activity,[4],0.4%
CC(=O)N[C@@H](Cc1ccc(O)cc1)C(=O)O [N-Ac-tyrosine],Rel. activity,[4],11%
CC(=O)N[C@H](C(=O)O)C(C)C [N-Ac-valine],Rel. activity,[4],2%
"CC(=O)N[C@@H](CCP(C)(=O)O)C(=O)O [N-acetyl-L-PPT, N-acetyl-L-phosphinothricin]",Km,[3],670 µM
same,affinity below that for hippuric acid and N-acetyl-L-glutamate,[4],approximately 50%
same,Rel. activity,[4],43%
B1,Spec. activity,[3]; 28 °C,9.6 nmol/min/mg of protein
same,Spec. activity,[3]; 37 °C,16.8 nmol/min/mg of protein
same,Spec. activity,[3]; 50 °C,14.9 nmol/min/mg of protein
same,Spec. activity,[3]; 60 °C,4.3 nmol/min/mg of protein
same,Spec. activity,[3]; pH 6,2.4 mol/min/mg of protein
same,Spec. activity,[3]; pH 8,12.0 mol/min/mg of protein
same,Km,[3],670 µM
